Laboratory results taken from US7148191B2, “Antigenic composition” (Intercell AG, priority 2000, dated 2006).

Key:
[1] = system: OVA257-264-peptide-specific IFN-γ-producing T cells; experiment: IFN-γ ELISPOT of draining lymph node cells after injection of OVA257-264-peptide mixtures; format: in vivo, mice (C57B1/6); settings: Example 11; day 4; peptide 300 μg, oligo-dIC26-mer 5 nmol, pR 100 μg/mouse; footpad
Experimental: Experimental Groups (4 Mice Per Group) • 1. OVA257-264-peptide+pIC+pR • 2. OVA257-264-peptide+pIC • 3. OVA257-264-peptide+pR On day 0 mice were injected into each hind footpad with a total volume of 100 μl (50 μl per footpad) containing the above mentioned compounds. Animals were sacrificed 4 days after injection and popliteal lymph nodes were harvested. Single cell suspensions were prepared by mincing lymph nodes through a 70 μm cell strainer. Thereafter, cells were washed twice with DMEM medium (Life Technologies) containing 5% fetal calf serum (FCS, SIGMA Chemicals). Cells were adjusted to 10^7 cells/ml in DMEM/5% FCS. IFN-γ ELISPOT assays were carried out in triplicates as described (Miyahira et al., 1995). […] Spots were counted using a Biosys reader (Biosys, Germany). […] The Results are expressed as the number of spots/1×10^6 unseparated cells±SD of triplicates.

[2] = system: peptide-specific IFN-γ-producing T cells in spleen or peripheral blood; experiment: IFN-γ ELISPOT of peripheral blood leukocytes or spleen cells (systemic response) after injection of OVA257-264-peptide mixtures; format: in vivo, mice (C57B1/6); settings: Example 11, FIG. 11; selected time points after one single injection
Experimental: To investigate whether the immune response induced by one single injection of peptide with pIC/pR is systemic, the rest of the animals (four per group) was bled from the tail vein at selected time points after injection, peripheral blood leukocytes (PBLs) were isolated, re-stimulated either with the relevant peptide, pIC, pR, ConA (positive control) or medium alone (background) and the number of IFN-γ-secreting T lymphocytes was determined using an ELISPOT assay. Assays were carried out in duplicates. Each spot represents a single IFN-γ-producing T cell. Spots were counted using a Biosys reader (Biosys, Germany). Number of background spots was subtracted from all samples. Results are expressed as the number of spots/1×10^6 cells±SD of duplicates.
(§1) To examine whether the immune response induced by one single injection of peptide with oligo-dIC/pR is systemic, the rest of the mice (4 mice/group) was investigated at selected time points after injection for the presence of peptide-specific IFN-γ-producing T cells in spleen or peripheral blood using an IFN-γ ELISPOT assay. Results are expressed as the number of spots/1×10^6 cells±SD of duplicates.

[3] = system: OVA-specific T cells; experiment: IFN-γ ELISPOT of draining lymph node cells after injection of ovalbumin (OVA) mixtures; format: in vivo, mice (C57B1/6); settings: Example 12, FIG. 12A; OVA 50 μg, oligo-dIC26-mer 5 nmol, pR 100 μg/mouse; footpad; day 4 LN
Experimental: Experimental Groups (4 Mice Per Group) • 1. OVA257-264-peptide+pIC+pR • 2. OVA257-264-peptide+pIC • 3. OVA257-264-peptide+pR On day 0 mice were injected into each hind footpad with a total volume of 100 μl (50 μl per footpad) containing the above mentioned compounds. Animals were sacrificed 4 days after injection and popliteal lymph nodes were harvested. Single cell suspensions were prepared by mincing lymph nodes through a 70 μm cell strainer. Thereafter, cells were washed twice with DMEM medium (Life Technologies) containing 5% fetal calf serum (FCS, SIGMA Chemicals). Cells were adjusted to 10^7 cells/ml in DMEM/5% FCS. […] This method is a widely used procedure for the quantification of antigen-specific T cells. […] Spots were counted using a Biosys reader (Biosys, Germany). […] The Results are expressed as the number of spots/1×10^6 unseparated cells±SD of triplicates. […]
Experimental Groups (4 Mice Per Group) • 1. […] Results are expressed as the number of spots/1×10^6 cells±SD of triplicates. […] Importantly, the IFN-γ production was detected not only upon the re-stimulation with the whole OVA protein but also with both, MHC class I (OVA257-264)- and II (OVA265-280)-restricted OVA-derived epitopes (FIG. 9).
Experimental Groups (8 Mice Per Group) • 1. […] Results are expressed as the number of spots/1×10^6 cells±SD of triplicates.

[4] = system: peptide-specific IFN-γ-producing T cells in peripheral blood; experiment: IFN-γ ELISPOT of peripheral blood leukocytes after injection of ovalbumin (OVA) mixtures; format: in vivo, mice (C57B1/6); settings: Example 12, FIG. 12B; PBLs re-stimulated with OVA257-264-peptide; selected time points after one single injection
Description: as §1, with “To further examine whether” for “To examine whether”, “injection of OVA protein with oligo-dIC/pR” for “injection of peptide with oligo-dIC/pR”, “cells in peripheral blood” for “cells in spleen or peripheral blood”

[5] = system: human monocyte-derived DCs; experiment: In vitro phenotypic maturation of DCs, surface molecules by flow cytometry; format: cell-based; settings: 48 hours; for phenotypic maturation of DCs (overall): each 10 μg/ml, LPS 1 μg/ml as control
[6] = Example 10, FIG. 10, 10 μg/ml, day 6-cultured DCs, vs untreated DCs

OVA257–264-Peptide (SIINFEKL) [OVA257-264-peptide]
local antigen-specific response in draining lymph node cells [1]: could not be observed | systemic response (peptide-specific IFN-γ-producing T cells in spleen or peripheral blood) [2]: could not be observed

OVA: Ovalbumin from chicken egg, grade V, SIGMA Chemicals, A-5503
local antigen-specific T cell response in lymph node cells [3]: could not be observed | systemic response (peptide-specific IFN-γ-producing T cells in peripheral blood) [4]: could not be observed

Poly-L-arginine [pR]
phenotypic maturation of DCs (overall) ([5]; Example 10, FIG. 10): None of the above described phenotypic changes could be observed

Polyinosinic-polycytidylic acid [pIC]
expression of CD1a molecules [5, 6]: down-regulation | expression of CD86 and the maturation marker CD83 [5, 6]: de-novo expression | expression of HLA-DR, -DQ and HLA-I molecules, CD40, CD54, CD80 [5, 6]: up-regulation | phenotypic maturation of DCs (overall) ([5]; Example 10, FIG. 10): comparable to that induced by LPS | expression of CD11a, CD11c, CD13, CD25, CD29 and CD50 antigens ([5]; Example 10, 10 μg/ml, day 6-cultured DCs): slight up-regulation
